Test results published in patent US11807627B2, “Morphic forms of complement factor D inhibitors” (priority 2018, dated 2023).
Read-outs that look alike come from different tables or passages of the source.

Legend:
Assay type in all cases: physicochemical
[1] = Hygroscopicity / dynamic vapour sorption (DVS); settings: for DVS: hygroscopicity: Table 27A
Protocol: (§1) Approximately, 10-20 mg of sample were placed into a mesh vapour sorption balance pan and loaded into a DVS Intrinsic dynamic vapour sorption balance by Surface Measurement Systems. The sample was subjected to a ramping profile from 40-90% relative humidity (RH) at 10% increments, maintaining the sample at each step until a stable weight had been achieved (dm/dt 0.004%, minimum step length 30 minutes, maximum step length 500 minutes) at 25° C. After completion of the sorption cycle, the sample was dried using the same procedure to 0% RH and then a second sorption cycle back to 40% RH. Two cycles were performed. The weight change during the sorption/desorption cycles were plotted, allowing for the hygroscopic nature of the sample to be determined. XRPD analysis was then carried out on any solid retained.
as §1, with “Approximately, 10” for “Approximately, 10-20”, “sample was” for “sample were”, “a DVS-1” for “a DVS Intrinsic”

[2] = Thermal stability by TGA; settings: for Thermal events from SSCI report: mass/weight loss: up to 250° C.
Protocol: TG analyses were performed using a TA Instruments Q5000 IR thermogravimetric analyzer. Temperature calibration was performed using nickel and Alumel™. Each sample was placed in an aluminum pan. The sample was hermetically sealed, the lid pierced, then inserted into the TG furnace. The furnace was heated under nitrogen. The method code on the thermogram is an abbreviation for the start and end temperature as well as the heating rate; e.g., […] means “from 25° C. to 350° C., at 10° C./min”.

[3] = Differential scanning calorimetry (DSC); settings: for DSC: Melting: onset; for DSC: Melting / DSC: Melting (peak): Table 27A
Protocol: DSC was performed using a TA Instruments 2920 or Q2000 differential scanning calorimeter. Temperature calibration was performed using NIST-traceable indium metal. The sample was placed into an aluminum DSC pan, covered with a lid, and the weight was accurately recorded. A weighed aluminum pan configured as the sample pan was placed on the reference side of the cell. The method code on the thermogram is an abbreviation for the start and end temperature as well as the heating rate; e.g., -30-250-10 means “from −30° C. to 250° C., at 10° C./min”. The following table summarizes the abbreviations used in each image for pan configurations: […]

[4] = Solubility in selected media (FaSSIF, FeSSIF, FaSSGF, pH 4 citrate, pH 6.8 phosphate)
Protocol: Solubility within selected media (FaSSIF, FeSSIF, FaSSGF, pH 4 citrate and pH 6.8 phosphate) was measured to be <0.01 mg/mL.
The pH 4 citrate buffer was prepared by dissolving sodium citrate (987 mg) and citric acid (1.28 g) in 100 mL H2O. The pH was adjusted to 4. The pH 6.8 phosphate buffer was prepared by dissolving dibasic sodium phosphate dihydrate (873 mg) and monobasic sodium phosphate monohydrate (708 mg) in 100 mL H2O. The pH was adjusted to 6.8. The FaSSIF media was prepared with sodium hydroxide (108 mg), sodium chloride (1.55 g) and monobasic sodium phosphate dihydrate (1.12 g) in H2O (0.25 L) and the pH adjusted to 6.5. FaSSIF/FeSSIF/FaSSGF (0.56 g) was dissolved in the buffer and mixed until opalescent. The FeSSIF media was prepared by dissolving sodium hydroxide (1.01 g), sodium chloride (2.96 g) and glacial acetic acid (2.97 g) in H2O (0.25 L) and the pH adjusted to pH 5. FaSSIF/FeSSIF/FaSSGF (2.81 g) was dissolved in the buffer and thoroughly mixed. The FaSSGF media was prepared by dissolving FaSSIF/FeSSIF/FaSSGF (0.06 g) in a solution of sodium chloride (2.00 g) dissolved in H2O (1 L) and mixing thoroughly.

[5] = Competitive slurries (Example 11)
Protocol: About 10 mg of Form A, Form B and Form J were weighed separately and the solids were combined into one vial. An appropriate volume of selected solvent was then added to form a slurry. Slurries were then agitated under ambient or elevated temperatures for about 48 hours. Post agitation, solids were isolated using centrifuge filtration and XRPD analysis was collected. Table 23 below details selected solvent systems and volumes used.
Solvent was re-introduced (volumes as per Table 24) to the samples and the samples were agitated for a further 72 hours as no single polymorphic form was returned from the experiments after 48 hours agitation. Solids were isolated using centrifuge filtration and XRPD analysis was collected.
Samples were repeated in 2-propanol and 2-propanol/heptane (70/30% v/v) at 60° C. using the above procedure. Samples were agitated for 24 hours and solvent volumes can be found in Table 24 below. […] Isolation of single forms via competitive slurrying appeared to be solvent dependent, as Forms B and J were produced from acetone and acetonitirile, respsectively. […] Both Forms A and B could be isolated from competitive slurrying experiments from different solvent systems but neither was exclusively predominant at a specific temperature.
An additional competitive slurry experiment was conducted. Approximately 20 mg of Form A and Form B were weighed into separate vials. […]

For `CC(=O)c1nn(CC(=O)N2[C@H](C(=O)Nc3nc(Br)ccc3C)C[C@@]3(C)C[C@@H]23)c2ccc(-c3cnc(C)nc3)cc12` [Form B], the “DVS analysis: hygroscopic nature” value ([1]; 25° C.) was “slightly hygroscopic”, the “DVS: hygroscopicity” value [1] was “Slightly hygroscopic” and the “DVS uptake as equivalents of water” value ([1]; at / up to 90% RH) was 0.1 equiv. water. For the same molecule, the DVS uptake ([1]; up to 90% RH) was 0.26 wt %, the “Thermal events from SSCI report: mass/weight loss” value [2] was 1.3% and the “Thermal events from SSCI report: thermal event temperature” value ([3]; SSCI report, event not named) was about 176 °C. The “DSC: Melting” value [3] was “Melting 178.4 °C”, the “DSC: Melting (peak)” value [3] was “(peak 186.3° C.)” and the solubility ([4]; FaSSGF) was under 10 µg/mL. The solubility ([4]; FaSSIF) was under 10 µg/mL, the solubility ([4]; FeSSIF) was under 10 µg/mL and the “Solubility in selected media” value ([4]; pH 4, pH 6.8, FaSSIF, FeSSIF and FaSSGF media) was “poorly soluble”. The “Relative stability in competitive slurry” value ([5]; Form A and Form B in saturated Compound 3 solutions, ambient and elevated temperature, about 2 weeks) was “likely the most thermodynamically stable form”.
For `CC(=O)c1nn(CC(=O)N2[C@H](C(=O)Nc3nc(Br)ccc3C)C[C@@]3(C)C[C@@H]23)c2ccc(-c3cnc(C)nc3)cc12` [Compound 3, (1R,3S,5R)-2-(2-(3-acetyl-5-(2-methylpyrimidin-5-yl)-1H-indazol-1-yl)acetyl)-N-(6-bromo-3-methylpyridin-2-yl)-5-methyl-2-azabicyclo[3.1.0]hexane-3-carboxamide], the Hygroscopicity [1] was “Non-hygroscopic”, the “Hygroscopicity: moisture uptake” value ([1]; at 60% RH) was under 5% and the “Thermal Stability by TGA” value ([2]; to 250° C.) was ~0.8% wt loss to 250 °C.
In the case of `CC(=O)c1nn(CC(=O)N2[C@H](C(=O)Nc3nc(Br)ccc3C)C[C@@]3(C)C[C@@H]23)c2ccc(-c3cnc(C)nc3)cc12` [Compound 3 Form A], the “DVS analysis: hygroscopic nature” value ([1]; 25° C.) is reported as “hygroscopic”, the “DVS: hygroscopicity” value [1] is reported as “Hygroscopic” and the DVS total uptake ([1]; at 90% RH, 25° C.) is reported as 6.9%. The “DVS uptake as equivalents of water” value ([1]; at / up to 90% RH) was 2.5 equiv. water, the DVS sharp uptake ([1]; between 50-60% RH) was 3.0% and the “DVS uptake as equivalents of water” value ([1]; between 50-60% RH) was 1.0 equiv. water. The “Thermal events from SSCI report: mass/weight loss” value [2] was 0.8% mass loss, the “Thermal events from SSCI report: Melt” value ([3]; SSCI report) was “Melt 133-150 °C” and the “DSC: Melting” value [3] was “Melting 138 °C (peak”. For the same molecule, the “DSC: Melting (peak)” value [3] was 151.4° C.), the “XRPD Results after stirring in media” value ([4]; FaSSGF) was “Form A” and the solubility ([4]; FaSSGF) was under 10 µg/mL. For the same molecule, the solubility ([4]; FaSSGF, fassgf or other biorelevant, thermodynamic from solid, read-out: Solubility: HPLC Result) was under 10 µg/mL, the “XRPD Results after stirring in media” value ([4]; FaSSIF) was “Form A” and the solubility ([4]; FaSSIF) was under 10 µg/mL. The solubility ([4]; FaSSIF, pH 6.5, fassif, thermodynamic from solid, read-out: Solubility: HPLC Result) was under 10 µg/mL, the “XRPD Results after stirring in media” value ([4]; FeSSIF) was “Form A” and the solubility ([4]; FeSSIF) was under 10 µg/mL. For the same molecule, the solubility ([4]; FeSSIF, pH 5, fessif, thermodynamic from solid, read-out: Solubility: HPLC Result) was under 10 µg/mL, the solubility ([4]; aqueous buffer, thermodynamic from solid, FaSSIF, FeSSIF, FaSSGF, pH 4 citrate and pH 6.8 phosphate, read-out: Solubility within selected media) was under 10 µg/mL and the solubility ([4]; aqueous buffer, thermodynamic from solid, pH 6.8 phosphate buffer, read-out: Solubility: HPLC Result) was under 10 µg/mL. The solubility ([4]; pH 4) was “Not detected”, the “Solubility: HPLC Result” value ([4]; pH 4 citrate buffer) was “Not detected” and the “XRPD Results after stirring in media” value ([4]; pH 4 citrate buffer) was “Form A”. The “XRPD Results after stirring in media” value ([4]; pH 6.8 phosphate buffer) was “Form A”, the solubility ([4]; pH 6.8 phosphate buffer, pH 6.8, aqueous buffer, thermodynamic from solid, read-out: Solubility) was under 10 µg/mL and the “Relative stability in competitive slurry” value ([5]; Form A, Form B and Form J, conversion of Form B to Form A in acetone over 72 hours) was “may be the most stable form”.
